Experimental data reported in BindingDB's records for doi:10.1016/s0014-2999(01)01087-1 (Janssen Research Foundation, 2001).
pKi: −log10 of the molar value.

Key:
[1] = target: Voltage-dependent L-type calcium channel subunit alpha-1C (Rattus norvegicus, UniProt P22002)
D(3) dopamine receptor = D(3) dopamine receptor (Homo sapiens, UniProt P35462)
Substance-K receptor = Substance-K receptor (Homo sapiens, UniProt P21452)
[2] = target: 5-hydroxytryptamine receptor 1D (Homo sapiens, UniProt P28221)
[3] = target: Beta-3 adrenergic receptor (Homo sapiens, UniProt P13945)
[4] = target: Sodium- and chloride-dependent glycine transporter 2 (Homo sapiens, UniProt Q9Y345)
[5] = target: 5-hydroxytryptamine receptor 7 (Homo sapiens, UniProt P34969)
Neurotensin = Neurotensin (Cavia porcellus, UniProt P32560)
[6] = target: Kappa-type opioid receptor (Cavia porcellus, UniProt P41144)
[7] = target: Cysteinyl leukotriene receptor 1 (Cavia porcellus, UniProt Q2NNR5)
Thromboxane A2 receptor = Thromboxane A2 receptor (Homo sapiens, UniProt P21731)
[8] = target: 5-hydroxytryptamine receptor 1F (Homo sapiens, UniProt P30939)
[9] = target: Gastrin/cholecystokinin type B receptor (Homo sapiens, UniProt P32239)
[10] = target: 5-hydroxytryptamine receptor 2A (Homo sapiens, UniProt P28223)
[11] = target: Gastrin/cholecystokinin type B receptor (Rattus norvegicus, UniProt P30553)
[12] = target: Alpha-2C adrenergic receptor (Homo sapiens, UniProt P18825)
[13] = target: Sodium-dependent dopamine transporter (Rattus norvegicus, UniProt P23977)
Neuromedin-K receptor = Neuromedin-K receptor (Homo sapiens, UniProt P29371)
[14] = target: Beta-1 adrenergic receptor (Homo sapiens, UniProt P08588)
[15] = target: Alpha-1A adrenergic receptor (Homo sapiens, UniProt P35348)
Histamine H1 receptor = Histamine H1 receptor (Homo sapiens, UniProt P35367)
[16] = target: Sodium- and chloride-dependent glycine transporter 1 (Rattus norvegicus, UniProt P28572)
[17] = target: 5-hydroxytryptamine receptor 1E (Homo sapiens, UniProt P28566)
[18] = target: 5-hydroxytryptamine receptor 5A (Homo sapiens, UniProt P47898)
[19] = target: 5-hydroxytryptamine receptor 3A (Mus musculus, UniProt P23979)
[20] = target: 5-hydroxytryptamine receptor 1A (Homo sapiens, UniProt P08908)
Substance-P receptor = Substance-P receptor (Homo sapiens, UniProt P25103)
[21] = target: Delta-type opioid receptor (Homo sapiens, UniProt P41143)
Mu-type opioid receptor = Mu-type opioid receptor (Homo sapiens, UniProt P35372)
[22] = target: Glutamate receptor ionotropic, NMDA 1 (Rattus norvegicus, UniProt P35439)
D(4) dopamine receptor = D(4) dopamine receptor (Homo sapiens, UniProt P21917)
[23] = target: Vasoactive intestinal polypeptide receptor 1 (Homo sapiens, UniProt P32241)
[24] = target: 5-hydroxytryptamine receptor 6 (Homo sapiens, UniProt P50406)
[25] = target: Alpha-2A adrenergic receptor (Homo sapiens, UniProt P08913)
[26] = target: 5-hydroxytryptamine receptor 2C (Homo sapiens, UniProt P28335)
[27] = target: Beta-2 adrenergic receptor (Homo sapiens, UniProt P07550)
B2 bradykinin receptor = B2 bradykinin receptor (Homo sapiens, UniProt P30411)
[28] = target: Norepinephrine transporter (Rattus norvegicus, UniProt Q9JIA2)
[29] = target: Alpha-2B adrenergic receptor (Homo sapiens, UniProt P18089)

Measured: pKi

5-hydroxytryptamine receptor 1E, sequence (P28566 whole entry): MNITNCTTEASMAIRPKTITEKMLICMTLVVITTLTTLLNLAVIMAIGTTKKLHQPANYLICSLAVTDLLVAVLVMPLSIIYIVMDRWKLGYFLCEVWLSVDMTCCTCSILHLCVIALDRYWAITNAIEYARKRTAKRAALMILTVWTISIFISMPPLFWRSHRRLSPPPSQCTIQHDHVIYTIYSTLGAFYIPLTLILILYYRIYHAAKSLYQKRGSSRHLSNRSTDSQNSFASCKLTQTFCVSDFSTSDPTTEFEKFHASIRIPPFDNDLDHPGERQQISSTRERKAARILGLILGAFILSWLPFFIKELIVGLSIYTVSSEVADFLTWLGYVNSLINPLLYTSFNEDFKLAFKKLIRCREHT
5-hydroxytryptamine receptor 2A, sequence (P28223 whole entry): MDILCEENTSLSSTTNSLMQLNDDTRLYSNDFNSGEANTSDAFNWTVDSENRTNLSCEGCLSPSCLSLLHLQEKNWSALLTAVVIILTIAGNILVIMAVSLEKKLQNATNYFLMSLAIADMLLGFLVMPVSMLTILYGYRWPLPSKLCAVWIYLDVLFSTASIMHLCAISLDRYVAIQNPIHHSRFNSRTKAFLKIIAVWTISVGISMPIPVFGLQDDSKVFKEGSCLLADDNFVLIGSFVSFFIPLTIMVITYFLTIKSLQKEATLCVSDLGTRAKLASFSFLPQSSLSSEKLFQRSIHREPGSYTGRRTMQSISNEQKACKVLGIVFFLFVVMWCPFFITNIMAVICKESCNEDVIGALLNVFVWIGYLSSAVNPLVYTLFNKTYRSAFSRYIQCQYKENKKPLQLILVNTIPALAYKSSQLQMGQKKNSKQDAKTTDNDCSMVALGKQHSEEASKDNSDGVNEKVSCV
5-hydroxytryptamine receptor 6, sequence (P50406 whole entry): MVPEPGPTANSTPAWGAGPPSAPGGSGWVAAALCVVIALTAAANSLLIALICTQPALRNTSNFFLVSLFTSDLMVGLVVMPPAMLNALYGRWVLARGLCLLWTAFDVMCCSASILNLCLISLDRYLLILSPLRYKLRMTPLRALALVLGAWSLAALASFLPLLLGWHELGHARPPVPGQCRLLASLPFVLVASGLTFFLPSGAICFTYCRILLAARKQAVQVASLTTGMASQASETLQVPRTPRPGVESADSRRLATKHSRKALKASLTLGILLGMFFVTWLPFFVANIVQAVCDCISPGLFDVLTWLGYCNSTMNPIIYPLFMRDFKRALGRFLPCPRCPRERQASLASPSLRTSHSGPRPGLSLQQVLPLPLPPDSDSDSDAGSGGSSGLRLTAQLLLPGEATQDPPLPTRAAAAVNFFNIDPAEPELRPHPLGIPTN
5-hydroxytryptamine receptor 5A, sequence (P47898 whole entry): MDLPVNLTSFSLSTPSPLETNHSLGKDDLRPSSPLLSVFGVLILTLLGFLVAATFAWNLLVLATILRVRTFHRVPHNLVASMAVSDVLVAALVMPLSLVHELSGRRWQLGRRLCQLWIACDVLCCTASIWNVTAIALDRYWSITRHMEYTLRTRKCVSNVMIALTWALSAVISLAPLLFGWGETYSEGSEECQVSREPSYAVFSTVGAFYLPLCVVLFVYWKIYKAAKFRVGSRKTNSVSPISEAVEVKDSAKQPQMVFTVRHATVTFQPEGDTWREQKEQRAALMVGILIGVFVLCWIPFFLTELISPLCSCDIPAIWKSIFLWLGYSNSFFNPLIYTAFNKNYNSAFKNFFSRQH
Alpha-2C adrenergic receptor, sequence (P18825 whole entry): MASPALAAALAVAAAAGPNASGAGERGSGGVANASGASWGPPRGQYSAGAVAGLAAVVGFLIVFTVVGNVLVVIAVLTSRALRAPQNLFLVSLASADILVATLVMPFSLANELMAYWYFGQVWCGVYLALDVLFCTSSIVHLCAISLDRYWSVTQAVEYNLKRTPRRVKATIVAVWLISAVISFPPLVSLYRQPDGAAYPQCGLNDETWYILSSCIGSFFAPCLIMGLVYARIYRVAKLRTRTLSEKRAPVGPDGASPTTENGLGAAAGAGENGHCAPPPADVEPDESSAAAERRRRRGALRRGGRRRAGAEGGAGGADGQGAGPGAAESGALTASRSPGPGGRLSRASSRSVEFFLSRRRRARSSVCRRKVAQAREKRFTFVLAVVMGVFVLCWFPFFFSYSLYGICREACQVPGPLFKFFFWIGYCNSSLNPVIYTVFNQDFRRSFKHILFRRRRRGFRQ
Kappa-type opioid receptor, sequence (P41144 whole entry): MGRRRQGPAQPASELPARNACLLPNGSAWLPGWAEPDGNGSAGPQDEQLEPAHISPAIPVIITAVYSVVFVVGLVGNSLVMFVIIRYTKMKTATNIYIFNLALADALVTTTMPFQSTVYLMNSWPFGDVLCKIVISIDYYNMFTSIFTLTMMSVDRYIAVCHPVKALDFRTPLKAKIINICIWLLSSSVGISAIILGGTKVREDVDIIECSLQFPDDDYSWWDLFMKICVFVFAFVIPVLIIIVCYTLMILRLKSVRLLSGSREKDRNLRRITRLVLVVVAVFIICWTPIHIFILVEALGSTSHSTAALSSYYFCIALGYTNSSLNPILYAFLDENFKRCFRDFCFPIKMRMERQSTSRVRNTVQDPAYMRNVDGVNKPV
B2 bradykinin receptor, sequence (P30411 whole entry): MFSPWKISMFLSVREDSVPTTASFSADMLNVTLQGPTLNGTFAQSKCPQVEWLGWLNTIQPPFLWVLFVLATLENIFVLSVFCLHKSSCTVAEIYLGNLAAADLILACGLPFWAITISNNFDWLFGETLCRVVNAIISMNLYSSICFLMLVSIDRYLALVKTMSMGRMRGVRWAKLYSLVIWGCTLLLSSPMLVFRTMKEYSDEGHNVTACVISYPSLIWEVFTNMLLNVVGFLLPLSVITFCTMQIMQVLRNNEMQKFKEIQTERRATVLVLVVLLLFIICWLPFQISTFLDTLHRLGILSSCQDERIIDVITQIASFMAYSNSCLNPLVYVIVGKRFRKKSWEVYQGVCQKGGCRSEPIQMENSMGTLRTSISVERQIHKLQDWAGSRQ
Substance-K receptor, sequence (P21452 whole entry): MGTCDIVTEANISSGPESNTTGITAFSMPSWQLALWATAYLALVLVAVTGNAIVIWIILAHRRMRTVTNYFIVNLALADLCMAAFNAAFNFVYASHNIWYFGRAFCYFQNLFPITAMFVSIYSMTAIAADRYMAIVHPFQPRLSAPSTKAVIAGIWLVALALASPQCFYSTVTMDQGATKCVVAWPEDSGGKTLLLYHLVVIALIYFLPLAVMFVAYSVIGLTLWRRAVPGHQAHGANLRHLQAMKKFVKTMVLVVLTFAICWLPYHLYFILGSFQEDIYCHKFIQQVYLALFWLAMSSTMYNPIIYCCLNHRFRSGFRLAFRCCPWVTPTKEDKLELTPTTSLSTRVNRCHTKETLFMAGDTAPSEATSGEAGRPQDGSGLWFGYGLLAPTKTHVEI
5-hydroxytryptamine receptor 1D, sequence (P28221 whole entry): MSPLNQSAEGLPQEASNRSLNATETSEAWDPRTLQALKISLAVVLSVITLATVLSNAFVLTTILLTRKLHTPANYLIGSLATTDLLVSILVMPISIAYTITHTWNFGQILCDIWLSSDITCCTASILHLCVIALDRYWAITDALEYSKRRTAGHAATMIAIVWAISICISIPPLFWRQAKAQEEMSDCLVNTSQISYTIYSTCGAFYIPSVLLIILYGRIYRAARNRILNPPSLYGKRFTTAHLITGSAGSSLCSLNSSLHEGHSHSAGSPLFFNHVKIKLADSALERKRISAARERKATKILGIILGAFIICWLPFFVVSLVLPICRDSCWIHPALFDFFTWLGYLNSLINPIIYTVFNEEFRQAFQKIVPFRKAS
Sodium- and chloride-dependent glycine transporter 2, sequence (Q9Y345 whole entry): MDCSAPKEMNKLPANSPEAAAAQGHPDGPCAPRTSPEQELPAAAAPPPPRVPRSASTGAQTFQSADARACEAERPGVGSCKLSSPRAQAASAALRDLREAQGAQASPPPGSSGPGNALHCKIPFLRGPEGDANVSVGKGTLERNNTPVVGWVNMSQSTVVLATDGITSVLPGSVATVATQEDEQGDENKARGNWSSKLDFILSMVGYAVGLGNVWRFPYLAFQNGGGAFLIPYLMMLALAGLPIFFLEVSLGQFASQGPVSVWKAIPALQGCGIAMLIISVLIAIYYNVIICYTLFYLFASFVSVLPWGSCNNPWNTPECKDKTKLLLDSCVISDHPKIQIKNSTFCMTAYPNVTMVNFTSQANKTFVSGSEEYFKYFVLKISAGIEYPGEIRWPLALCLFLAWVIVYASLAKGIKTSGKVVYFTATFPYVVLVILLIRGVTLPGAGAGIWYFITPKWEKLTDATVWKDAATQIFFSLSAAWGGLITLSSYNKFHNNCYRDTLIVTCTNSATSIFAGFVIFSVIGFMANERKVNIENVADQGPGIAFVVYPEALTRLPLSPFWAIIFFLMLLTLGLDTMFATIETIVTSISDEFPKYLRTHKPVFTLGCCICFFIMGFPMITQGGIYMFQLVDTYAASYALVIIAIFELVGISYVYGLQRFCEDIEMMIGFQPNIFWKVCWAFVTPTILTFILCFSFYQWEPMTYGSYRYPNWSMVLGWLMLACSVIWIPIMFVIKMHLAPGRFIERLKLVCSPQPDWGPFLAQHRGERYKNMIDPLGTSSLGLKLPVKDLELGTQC
Neuromedin-K receptor, sequence (P29371 whole entry): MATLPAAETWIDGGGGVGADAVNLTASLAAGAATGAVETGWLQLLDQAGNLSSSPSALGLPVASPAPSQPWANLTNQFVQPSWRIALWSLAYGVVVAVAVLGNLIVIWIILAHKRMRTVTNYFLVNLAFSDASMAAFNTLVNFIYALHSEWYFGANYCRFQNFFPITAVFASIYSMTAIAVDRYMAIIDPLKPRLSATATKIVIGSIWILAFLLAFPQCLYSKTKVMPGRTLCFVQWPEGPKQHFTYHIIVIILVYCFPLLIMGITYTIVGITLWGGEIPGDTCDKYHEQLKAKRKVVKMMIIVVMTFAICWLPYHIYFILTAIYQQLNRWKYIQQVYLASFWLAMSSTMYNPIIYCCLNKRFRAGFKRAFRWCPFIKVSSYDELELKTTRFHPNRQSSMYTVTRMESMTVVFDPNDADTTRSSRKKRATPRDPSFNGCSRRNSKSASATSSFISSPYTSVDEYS

COCCCN1CCC(NC(=O)c2cc(Cl)c(N)c3c2OCC3)CC1 [4-Amino-5-chloro-2,3-dihydro-benzofuran-7-carboxylic acid [1-(3-methoxy-propyl)-piperidin-4-yl]-amide]
5.42: [19]
5.63: D(4) dopamine receptor
< 5.00: all other assays above
